The record followed here is ChEMBL document CHEMBL3091388, “New cytotoxic benzosuberene analogs. Synthesis, molecular modeling and biological evaluation” (Bioorg Med Chem Lett, 2013).

One series has as its target CYP3A4 (Homo sapiens, UniProt P08684). Nature of the series: Inhibition of CYP3A4 (unknown origin) at 3 uM. In kind it is ADME.
A further series has as its target CYP2D6 (Homo sapiens, UniProt P10635). Nature of the series: Inhibition of CYP2D6 (unknown origin) at 3 uM. Format: ADME.
For another series, the target named is CYP2C9 (Homo sapiens, UniProt P11712). Nature of the series: Inhibition of CYP2C9 (unknown origin) at 3 uM. Format: ADME.
The target in another series is T1, CYP1A2 (Homo sapiens, UniProt P05177).
T1 sequence (P05177 whole entry): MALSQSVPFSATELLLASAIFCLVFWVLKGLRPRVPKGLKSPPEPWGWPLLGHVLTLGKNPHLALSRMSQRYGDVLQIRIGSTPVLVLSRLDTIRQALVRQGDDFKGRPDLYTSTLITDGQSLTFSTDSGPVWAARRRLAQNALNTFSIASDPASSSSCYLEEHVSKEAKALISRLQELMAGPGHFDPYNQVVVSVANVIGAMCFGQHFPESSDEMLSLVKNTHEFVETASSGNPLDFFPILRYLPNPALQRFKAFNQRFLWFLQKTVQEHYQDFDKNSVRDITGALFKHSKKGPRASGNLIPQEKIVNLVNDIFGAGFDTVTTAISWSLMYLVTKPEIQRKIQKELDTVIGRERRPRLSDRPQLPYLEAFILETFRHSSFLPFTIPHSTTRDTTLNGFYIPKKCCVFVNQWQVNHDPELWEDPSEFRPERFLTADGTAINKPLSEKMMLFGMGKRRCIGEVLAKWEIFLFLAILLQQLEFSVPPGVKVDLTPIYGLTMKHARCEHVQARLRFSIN
Kind of series: Inhibition of CYP1A2 (unknown origin) at 3 uM. In kind it is ADME.

In a further series the target is T2, CYP2C8 (Homo sapiens, UniProt P10632).
T2 sequence (P10632 whole entry): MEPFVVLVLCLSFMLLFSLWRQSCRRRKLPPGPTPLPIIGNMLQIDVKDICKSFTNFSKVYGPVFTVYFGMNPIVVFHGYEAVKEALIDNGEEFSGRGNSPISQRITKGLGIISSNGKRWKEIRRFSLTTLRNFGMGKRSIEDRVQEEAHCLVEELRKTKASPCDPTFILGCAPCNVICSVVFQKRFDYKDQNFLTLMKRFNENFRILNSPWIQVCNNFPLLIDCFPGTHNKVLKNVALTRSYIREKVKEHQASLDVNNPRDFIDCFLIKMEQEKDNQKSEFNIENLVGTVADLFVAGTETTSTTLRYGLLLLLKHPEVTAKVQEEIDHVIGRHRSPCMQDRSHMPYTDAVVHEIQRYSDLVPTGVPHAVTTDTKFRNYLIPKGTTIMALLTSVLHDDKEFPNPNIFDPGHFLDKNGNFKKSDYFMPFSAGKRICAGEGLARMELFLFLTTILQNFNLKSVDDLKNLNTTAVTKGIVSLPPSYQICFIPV
Nature of the series: Inhibition of CYP2C8 (unknown origin) at 3 uM. In kind it is ADME.

For the next series, the target named is MDR1 (ABCB1, P-gp) (Homo sapiens, UniProt P08183). Nature of the series: Activity at MDR1 (unknown origin) expressed in MDCK cells assessed as efflux ratio of permeability at 2 uM. Format: ADME, cell-based.
Series [1] can be described thus: Apparent permeability from apical to basolateral side in RRCK cells. In kind it is ADME, cell-based, Canis lupus familiaris, MDCKII-LE. The conditions noted are these: dog, MDCK.
The nature of series [2]: Apparent intrinsic clearance in human liver microsomes at 1 uM. In kind it is ADME. The conditions noted are these: read-out: CLH(app). In general terms: Liver microsomes are a subcellular fraction often used to study metabolism.
A further series has as its system HUVEC. Nature of the series: Cytotoxicity against HUVEC assessed as cell viability after 4 days by MTS assay. Format: cell-based. To be noted: Homo sapiens, 96 h. In general terms: Tetrazolium dyes change colour on reduction, which living cells bring about.
A further series relates to MDA-MB-468. Kind of series: Cytotoxicity against human MDA-MB-468 cells assessed as cell viability after 4 days by MTS assay. In kind it is functional, cell-based. To be noted: MDA-MB-468, 96 h.
The next series concerns NCI-N87. Nature of the series: Cytotoxicity against human NCI-N87 cells assessed as cell viability after 4 days by MTS assay. In kind it is functional, cell-based. The conditions noted are these: NCI-N87, 96 h.
A further series deals with BT-474. Kind of series: Cytotoxicity against human BT474 cells assessed as cell viability after 4 days by MTS assay. Format: functional, cell-based. The conditions noted are these: BT-474, 96 h.

Sequence of CYP3A4 (P08684 whole entry): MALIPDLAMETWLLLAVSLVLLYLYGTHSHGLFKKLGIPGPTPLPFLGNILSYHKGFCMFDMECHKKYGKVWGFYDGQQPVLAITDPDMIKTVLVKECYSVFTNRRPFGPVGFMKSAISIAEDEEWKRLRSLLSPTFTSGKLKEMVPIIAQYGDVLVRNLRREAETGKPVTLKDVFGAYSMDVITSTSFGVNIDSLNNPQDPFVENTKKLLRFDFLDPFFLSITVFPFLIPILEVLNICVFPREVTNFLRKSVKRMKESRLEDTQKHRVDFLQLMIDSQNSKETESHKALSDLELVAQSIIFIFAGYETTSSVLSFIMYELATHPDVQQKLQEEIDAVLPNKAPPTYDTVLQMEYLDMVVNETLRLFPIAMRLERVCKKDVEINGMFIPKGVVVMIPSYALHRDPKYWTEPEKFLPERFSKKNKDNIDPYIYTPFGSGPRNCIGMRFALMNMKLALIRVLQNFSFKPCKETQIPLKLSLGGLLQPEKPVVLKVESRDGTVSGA
Sequence of MDR1 (ABCB1, P-gp) (P08183 whole entry): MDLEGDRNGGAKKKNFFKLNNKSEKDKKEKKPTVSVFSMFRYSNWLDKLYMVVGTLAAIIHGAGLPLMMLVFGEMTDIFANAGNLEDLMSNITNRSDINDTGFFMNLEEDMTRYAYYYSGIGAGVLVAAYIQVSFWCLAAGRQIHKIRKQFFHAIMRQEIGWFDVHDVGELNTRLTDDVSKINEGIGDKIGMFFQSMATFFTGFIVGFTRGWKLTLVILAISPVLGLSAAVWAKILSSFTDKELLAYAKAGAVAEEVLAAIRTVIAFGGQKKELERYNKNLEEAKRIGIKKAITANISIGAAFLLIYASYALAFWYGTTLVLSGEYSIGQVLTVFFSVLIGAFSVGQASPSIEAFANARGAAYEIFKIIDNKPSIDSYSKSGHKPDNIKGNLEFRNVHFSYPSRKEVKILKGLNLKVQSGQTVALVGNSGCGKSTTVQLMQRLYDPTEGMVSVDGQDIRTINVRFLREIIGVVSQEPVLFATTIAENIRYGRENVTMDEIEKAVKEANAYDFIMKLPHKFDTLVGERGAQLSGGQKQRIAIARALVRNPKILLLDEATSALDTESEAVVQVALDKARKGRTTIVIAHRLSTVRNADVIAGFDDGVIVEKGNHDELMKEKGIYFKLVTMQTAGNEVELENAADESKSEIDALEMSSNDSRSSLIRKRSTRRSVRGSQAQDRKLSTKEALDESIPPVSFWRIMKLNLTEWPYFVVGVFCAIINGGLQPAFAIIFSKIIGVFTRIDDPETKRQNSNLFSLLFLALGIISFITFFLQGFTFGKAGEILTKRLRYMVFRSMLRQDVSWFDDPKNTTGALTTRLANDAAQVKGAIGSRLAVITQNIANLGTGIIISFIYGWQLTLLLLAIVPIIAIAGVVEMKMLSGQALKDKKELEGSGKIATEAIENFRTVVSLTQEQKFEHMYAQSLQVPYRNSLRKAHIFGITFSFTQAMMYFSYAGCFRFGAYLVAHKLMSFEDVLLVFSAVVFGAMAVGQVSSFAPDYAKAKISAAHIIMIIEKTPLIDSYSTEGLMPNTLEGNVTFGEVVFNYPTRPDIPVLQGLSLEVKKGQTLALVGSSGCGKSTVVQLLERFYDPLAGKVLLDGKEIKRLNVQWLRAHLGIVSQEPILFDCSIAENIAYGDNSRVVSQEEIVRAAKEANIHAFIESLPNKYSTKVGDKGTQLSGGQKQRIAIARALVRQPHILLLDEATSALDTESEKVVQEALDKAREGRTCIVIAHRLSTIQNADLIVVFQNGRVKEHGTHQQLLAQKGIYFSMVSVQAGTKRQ
Sequence of CYP2C9 (P11712 whole entry): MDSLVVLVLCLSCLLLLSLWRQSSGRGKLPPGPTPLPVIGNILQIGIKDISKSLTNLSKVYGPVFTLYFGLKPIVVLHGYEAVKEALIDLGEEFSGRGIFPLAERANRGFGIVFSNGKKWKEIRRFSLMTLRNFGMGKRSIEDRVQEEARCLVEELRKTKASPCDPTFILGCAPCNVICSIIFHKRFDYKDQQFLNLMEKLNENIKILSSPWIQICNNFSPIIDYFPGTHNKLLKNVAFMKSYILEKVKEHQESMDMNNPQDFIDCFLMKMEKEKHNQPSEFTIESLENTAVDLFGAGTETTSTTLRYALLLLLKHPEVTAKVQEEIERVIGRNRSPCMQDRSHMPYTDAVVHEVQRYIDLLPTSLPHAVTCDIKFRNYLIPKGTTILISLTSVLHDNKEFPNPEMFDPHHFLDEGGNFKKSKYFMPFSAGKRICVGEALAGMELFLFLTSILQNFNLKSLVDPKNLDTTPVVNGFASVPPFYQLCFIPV
Sequence of CYP2D6 (P10635 whole entry): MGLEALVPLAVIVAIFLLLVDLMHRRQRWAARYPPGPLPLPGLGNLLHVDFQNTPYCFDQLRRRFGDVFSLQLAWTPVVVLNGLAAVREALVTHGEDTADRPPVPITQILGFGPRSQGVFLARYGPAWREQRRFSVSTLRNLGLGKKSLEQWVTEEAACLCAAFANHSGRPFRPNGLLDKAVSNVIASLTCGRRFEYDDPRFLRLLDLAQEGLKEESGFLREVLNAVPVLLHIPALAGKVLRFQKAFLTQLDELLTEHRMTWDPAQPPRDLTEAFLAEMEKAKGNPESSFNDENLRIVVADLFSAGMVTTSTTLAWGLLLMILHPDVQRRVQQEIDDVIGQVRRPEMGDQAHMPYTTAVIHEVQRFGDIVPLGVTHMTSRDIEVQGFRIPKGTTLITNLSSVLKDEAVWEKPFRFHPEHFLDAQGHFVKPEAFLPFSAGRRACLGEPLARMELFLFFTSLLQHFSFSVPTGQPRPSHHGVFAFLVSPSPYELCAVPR

For the compound `COc1ccc2c(c1O)CCCC(C)=C2c1cc(OC)c(OC)c(OC)c1`, the inhibition (as a rule, the share of the control response that was lost under treatment) at 3 µM came to 39.6% against CYP3A4; 13.5% against CYP2D6; 91.5% at CYP2C9; 19.7% at CYP1A2; 83.2% against CYP2C8. For the same compound, on MDR1 (ABCB1, P-gp), the efflux ratio (in general, the permeability from basolateral to apical divided by that in the opposite direction, in the common usage) at 2 µM came out at 13.1. For the same compound, the apparent permeability from apical to basolateral (Papp A→B) (as a rule, the apparent permeability from the apical to the basolateral side of a cell layer) in [1] was 6.2 ×10⁻⁶ cm/s. For the same compound, in series [2], the microsomal CLint at 1 µM was 108 µL/min/mg. Moreover, the IC50 (in general, the concentration that gives 50% inhibition) came out at 0.0784 µM in the series on HUVEC, 0.0446 µM in the series on MDA-MB-468, 0.203 µM in the series on NCI-N87 and 0.0523 µM in the series with BT-474.
Regarding `COc1ccc2c(c1O)CCCC(Cc1ccccc1)=C2c1cc(OC)c(OC)c(OC)c1`, the inhibition at 3 µM at CYP3A4 turned out to be 33.9%; on CYP2D6, 26.2%; at CYP2C9 it was 55.3%; on CYP1A2 it was 18.4%; on CYP2C8, 83.5%. The microsomal CLint at 1 µM in [2] came out at 51.2 µL/min/mg. Besides, the IC50 was 0.961 µM in the series with HUVEC, greater than 1 µM with MDA-MB-468, greater than 1 µM in the series on NCI-N87 and greater than 1 µM in the series on BT-474.
Regarding `CCC1=C(c2cc(OC)c(OC)c(OC)c2)c2ccc(OC)c(O)c2CCC1`, the inhibition at 3 µM was 31.8% at CYP3A4; 16% on CYP2D6; 75% on CYP2C9; 11.3% at CYP1A2; 71.5% against CYP2C8. The efflux ratio at 2 µM on MDR1 (ABCB1, P-gp) was determined as 1. Also, the Papp A→B in series [1] worked out at 3.3 ×10⁻⁶ cm/s. The microsomal CLint at 1 µM in series [2] was determined as 136 µL/min/mg. Further, the half-maximal inhibitory concentration (IC50) in the series on HUVEC was determined as 0.193 µM; in the series with MDA-MB-468 it was 0.304 µM; in the series with NCI-N87, 0.335 µM; with BT-474 it was 0.355 µM.
`COc1ccc(/C=C\c2cc(OC)c(OC)c(OC)c2)cc1O` [COMBRETASTATIN A4]: the 50% inhibitory concentration (IC50) in the series on HUVEC stood at 0.0025 µM; in the series on MDA-MB-468, 0.0011 µM; in the series with NCI-N87, 0.0025 µM; in the series on BT-474, 0.0039 µM.
In the case of `COc1ccc2c(c1O)C[C@@H]1C=C[C@@]2(c2cc(OC)c(OC)c(OC)c2)O1` (racemic), the half-inhibitory concentration (IC50) came out at 0.016 µM in the series with HUVEC, 0.0089 µM in the series with MDA-MB-468, 0.0156 µM with NCI-N87 and 0.0109 µM in the series with BT-474.
`COc1ccc2c(c1O)CCCC(CCCC#N)=C2c1cc(OC)c(OC)c(OC)c1`: the inhibition at 3 µM at CYP3A4 was found to be 25.3%; against CYP2D6, 0.9%; against CYP2C9, 23.7%; against CYP1A2, 1.5%; against CYP2C8 it was 50.5%. For the same compound, the Papp A→B in [1] came to 16.6 ×10⁻⁶ cm/s. Moreover, in series [2], the microsomal CLint at 1 µM stood at 239 µL/min/mg. Moreover, the concentration for half-maximal inhibition (IC50) is 0.7 µM in the series with HUVEC, greater than 1 µM with MDA-MB-468, 0.824 µM with NCI-N87 and 0.922 µM in the series on BT-474.
For `COc1ccc2c(c1O)CCCC(CCN(C)C)=C2c1cc(OC)c(OC)c(OC)c1`, the IC50 was 0.251 µM with HUVEC, greater than 1 µM in the series on MDA-MB-468, greater than 1 µM in the series on NCI-N87 and greater than 1 µM in the series with BT-474.
Take `COc1ccc2c(c1O)CC=CC=C2c1cc(OC)c(OC)c(OC)c1`: the IC50 in the series with HUVEC was 0.005 µM; with MDA-MB-468, 0.004 µM; with NCI-N87, 0.0056 µM; with BT-474, 0.0055 µM.
Turning to `COc1ccc2c(c1O)CCCC(CCC#N)=C2c1cc(OC)c(OC)c(OC)c1`, the inhibition at 3 µM against CYP3A4 was determined as 31.4%; against CYP2D6 it was 2.8%; on CYP2C9, 75.7%; on CYP1A2, 2.8%; against CYP2C8, 45.3%. Also, the efflux ratio at 2 µM on MDR1 (ABCB1, P-gp) was found to be 1.2. In addition, the Papp A→B in series [1] turned out to be 19.6 ×10⁻⁶ cm/s. Besides, the microsomal CLint at 1 µM in series [2] was greater than 320 µL/min/mg. Also, the half-maximal inhibitory concentration (IC50) in the series with HUVEC was 0.644 µM; in the series with MDA-MB-468, 0.561 µM; in the series on NCI-N87, 0.864 µM; in the series with BT-474, 0.718 µM.
Take `COc1ccc2c(c1O)CCCC(CCC(N)=O)=C2c1cc(OC)c(OC)c(OC)c1`: the IC50 was 0.472 µM in the series with HUVEC, greater than 1 µM in the series with MDA-MB-468, greater than 1 µM in the series with NCI-N87 and greater than 1 µM with BT-474.
For the compound `COc1ccc2c(c1O)CCCC(CC(O)CO)=C2c1cc(OC)c(OC)c(OC)c1` (racemic), the inhibition at 3 µM at CYP3A4 came out at 3.7%; against CYP2D6, 0%; against CYP2C9, 6.1%; on CYP1A2, 0%; against CYP2C8 it was 35.4%. For the same compound, the Papp A→B in series [1] was determined as 16.1 ×10⁻⁶ cm/s. Besides, in [2], the microsomal CLint at 1 µM is 66.3 µL/min/mg. Also, the half-maximal inhibitory concentration (IC50) in the series on HUVEC was greater than 1 µM; in the series with MDA-MB-468, 0.919 µM; with NCI-N87, greater than 1 µM; with BT-474 it was 0.99 µM.
As to `COc1ccc2c(c1O)CCCC(CCO)=C2c1cc(OC)c(OC)c(OC)c1`, the IC50 with HUVEC amounted to 0.155 µM; in the series on MDA-MB-468 it was 0.115 µM; in the series on NCI-N87 it was 0.2 µM; in the series with BT-474, 0.217 µM.
For `COc1cc2c(c(OC)c1OC)-c1ccc(OC)c(=O)cc1[C@@H](NC(C)=O)CC2` [COLCHICINE], the inhibition at 3 µM on CYP2D6 amounted to 7.7%; against CYP2C9, 11.1%; on CYP2C8, 20.4%. In addition, in [1], the apical-to-basolateral permeability (Papp A→B) was determined as 0.76 ×10⁻⁶ cm/s. The IC50 is 0.0132 µM with HUVEC, 0.0021 µM in the series on MDA-MB-468, 0.0054 µM in the series with NCI-N87 and 0.0038 µM in the series on BT-474.
`COc1ccc2c(c1O)CCCC=C2c1cc(OC)c(OC)c(OC)c1`: the inhibition at 3 µM at CYP3A4 came to 16.1%; on CYP2D6 it was 6.2%; on CYP2C9, 89.7%; against CYP1A2 it was 19%; at CYP2C8, 77.6%. The microsomal CLint at 1 µM in series [2] amounted to 54.1 µL/min/mg. Moreover, the concentration for half-maximal inhibition (IC50) with HUVEC was determined as 0.0046 µM; with MDA-MB-468 it was 0.0015 µM; in the series on NCI-N87, 0.0038 µM; with BT-474, 0.0029 µM.
